Laboratory results reported in ChEMBL document CHEMBL1150567, “Three new phenolic compounds from a manipulated plant cell culture, Mirabilis jalapa” (J Nat Prod, 2001).
Converted amounts (≈) assume the structure as drawn.

Experiments:
Candida albicans [1] = experiment: Antifungal activity against wild type Candida albicans SC5314 after 24 hrs by XTT assay; type: functional, organism-based; conditions: SC5314, 24 h
Candida albicans [2] = experiment: Antifungal activity against MDR knockout Candida albicans DSY1024 after 24 hrs by XTT assay; type: functional, organism-based; conditions: DSY1024, 24 h

SMILES | IC50 (Candida albicans [1]) [µg/mL] | IC50 (Candida albicans [2]) [µg/mL]
COc1ccccc1-c1coc2cc(O)c(C)c(O)c2c1=O | 16 (≈ 53.6 µM) | 25 (≈ 83.8 µM)
O=c1c(-c2ccc(O)cc2)coc2cc(O)cc(O)c12 [GENISTEIN] | > 100 | > 100
OC(Cn1cncn1)(Cn1cncn1)c1ccc(F)cc1F [FLUCONAZOLE] | 0.18 (≈ 0.588 µM) | 6.7 (≈ 21.9 µM)
COc1cc2c(c(O)c1C)C(=O)[C@@]1(O)c3cccc(O)c3O[C@@H](OC)[C@@H]1O2 | > 200 | > 200
O=c1c(-c2ccc(O)cc2)coc2cc(O)ccc12 [DAIDZEIN] | > 100 | > 100
COc1cc2oc3c(c(=O)c2c(O)c1C)-c1cccc(O)c1OC3O (stereo unspecified) [9-O-METHYL-4-HYDROXYBOERAVINONE B] | > 200 | 48 (≈ 140 µM)
C[C@@H]1[C@H](O)[C@@H](C)/C=C/C=C/C=C/C=C/C=C/C=C/C=C/[C@H](O[C@@H]2O[C@H](C)[C@@H](O)[C@H](N)[C@@H]2O)C[C@@H]2O[C@](O)(C[C@@H](O)C[C@@H](O)[C@H](O)CC[C@@H](O)C[C@@H](O)CC(=O)O[C@H]1C)C[C@H](O)[C@H]2C(=O)O [AMPHOTERICIN B] | 0.15 (≈ 0.162 µM) | 0.19 (≈ 0.206 µM)
COc1ccc(-c2coc3cc(O)cc(O)c3c2=O)cc1 [BIOCHANIN] | > 100 | > 100
